We go through three molecules from patent US6897215B1, “Compounds having 5-HT6 receptor antagonist activity” (NPS Allelix Corp., priority 1999, dated 2005).

Where two headings read alike, the source gives them in different places.

Assay [1] concerns the target T1, human 5-HT6 subtype of receptor (Homo sapiens, UniProt P50406). The assay can be described thus: biochemical.
For assay [2], the target named is T1, human 5-HT6 subtype of receptor. The settings on record: read-out: 5-HT6 receptor affinity (Ki); radioligand 3H-LSD, 60 minute incubation at 37° C.
The subject of assay [3] is a number of other receptors including other serotonin receptors such as 5-HT1A and 5-HT7. In words: selectivity over other receptors. The settings on record: 5-HT6 versus other receptors incl. 5-HT1A and 5-HT7.
In the next assay the target is T2, human 5-HT6 receptors (Homo sapiens, UniProt P50406).
T2 construct: expressed in transfected cells; host or cells: HEK293 (stably transfected, G418 selection)
The assay can be described thus: functional adenylyl cyclase assay: cAMP accumulation in stably transfected HEK293 cells. It is filed as cell-based. The settings on record: 1 uM serotonin. A general note: cAMP levels reflect the balance of adenylyl cyclase and phosphodiesterase activity.

Broadly, the Ki is the equilibrium dissociation constant of an inhibitor or competing ligand from its target. As usually defined, the IC50 is the concentration at which inhibition is half-maximal. Low values mean inhibition by little substance, high ones a need for much substance.

T1 sequence (P50406 whole entry): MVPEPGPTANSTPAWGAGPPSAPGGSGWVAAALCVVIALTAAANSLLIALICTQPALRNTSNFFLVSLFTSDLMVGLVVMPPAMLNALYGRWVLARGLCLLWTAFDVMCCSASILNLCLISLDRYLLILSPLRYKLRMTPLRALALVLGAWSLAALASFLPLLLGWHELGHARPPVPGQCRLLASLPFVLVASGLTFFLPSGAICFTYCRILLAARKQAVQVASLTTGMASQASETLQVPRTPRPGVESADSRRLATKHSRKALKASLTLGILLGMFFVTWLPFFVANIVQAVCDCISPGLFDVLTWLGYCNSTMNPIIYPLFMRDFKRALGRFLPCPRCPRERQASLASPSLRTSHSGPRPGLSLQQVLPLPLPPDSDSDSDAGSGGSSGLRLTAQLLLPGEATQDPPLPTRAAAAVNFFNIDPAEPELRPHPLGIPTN
T2 sequence (P50406 whole entry): as above
Procedure for human 5-HT6 receptors: The antagonist property of the compounds at the human 5-HT6 receptors was determined by testing their effect on cAMP accumulation in stably transfected HEK293 cells. […] A compound that is an agonist will show an increase in cAMP production and a compound that is an antagonist will block the agonist effect Human 5-HT6 receptors were cloned and stably expressed in HEK293 cells. These cells were plated in 6 well plates in DMEM/F12 media with 10% fetal calf serum (FCS) and 500 ug/mL G418 and incubated at 37° C. in a CO2 incubator. The cells were allowed to grow to about 70% confluence before initiation of the experiment. On the day of the experiment, the culture media was removed, and the cells were washed once with serum free medium (SFM). Two mL of SFM+IBMX media was added and incubated at 37° C. for 10 min. […] The tubes were centrifuged for 5 min at 4° C., and the supernatants were stored at 4° C. until assayed. cAMP content was determined by EIA (enzyme-immunoassay) using the Amersham Biotrak cAMP EIA kit (Amersham RPN 225). […] Briefly, cAMP is determined by the competition between unlabeled cAMP and a fixed quantity of peroxidase-labelled cAMP for the binding sites on anti-cAMP antibody. […] The reaction is stopped by the addition of 100 uL 1.0 M sulphuric acid and the resultant color read by a microtitre plate spectrophotometer at 450 nM within 30 minutes.

On to `O=S(=O)(c1cccc2ccccc12)n1ccc2ccc(C3CCN4CCCC4C3)cc21` (single isomer, unassigned) [Example 5F (13)], for which, in assay [1], the inhibition constant (Ki) was 700 pM.
Turning to `O=S(=O)(c1cccc2ccccc12)n1ccc2ccc(N3CCN4CCCC4C3)cc21` (stereo not drawn) [Example 4a, 6-[6,5-Bicyclopiperazinyl]-1-[1-naphthylenesulphonyl]indole], the Ki in assay [2] was determined as 200 pM. Besides, the “selectivity over other receptors” value in assay [3] is reported as “good selectivity”. In addition, on human 5-HT6 receptors, it took 7200 pM to reach half-maximal inhibition (IC50) and the “antagonist property at the 5-HT6 receptor” value is “competitive antagonist”.
`O=S(=O)(c1cccc2ccccc12)n1ccc2ccc(C3CCN4CCCC4C3)cc21` [Example 5F (12), 6-[(7-R,S)(8a-R,S)-Octahydroindolizin-7-yl]-1-naphthylsulfonyl-indole]: the Ki in assay [2] is 800 pM.
